Laboratory results taken from ChEMBL document CHEMBL4184280, “Novel nicotinamide analog as inhibitor of nicotinamide N-methyltransferase” (Bioorg Med Chem Lett, 2018).
pIC50: −log10 of the molar value. In brackets after ≈: the same amount, converted by molar mass. Each block holds one compound with its values, some of them ahead of it.

Key:
[1] = molecular target: T1, Nicotinamide N-methyltransferase (Homo sapiens, UniProt P40261)
T1 sequence (P40261 whole entry): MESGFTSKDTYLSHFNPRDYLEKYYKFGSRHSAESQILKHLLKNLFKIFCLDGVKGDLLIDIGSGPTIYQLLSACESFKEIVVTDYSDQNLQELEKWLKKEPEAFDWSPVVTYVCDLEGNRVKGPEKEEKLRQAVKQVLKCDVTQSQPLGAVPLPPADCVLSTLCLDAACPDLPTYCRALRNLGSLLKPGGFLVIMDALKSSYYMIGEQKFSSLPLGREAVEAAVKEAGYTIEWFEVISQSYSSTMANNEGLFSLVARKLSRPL

Cytochrome P450 2C19 = Cytochrome P450 2C19 (Homo sapiens, UniProt P33261); experiment: Inhibition of CYP2C19 (unknown origin); type: ADME
[2] = molecular target: T2, Nicotinamide N-methyltransferase (Mus musculus, UniProt O55239); experiment: Inhibition of mouse NNMT at 30 uM preincubated for 30 mins followed by nicotinamide substrate and SAM addition measured after 60 mins by fluorescence assay
T2 sequence (O55239 whole entry): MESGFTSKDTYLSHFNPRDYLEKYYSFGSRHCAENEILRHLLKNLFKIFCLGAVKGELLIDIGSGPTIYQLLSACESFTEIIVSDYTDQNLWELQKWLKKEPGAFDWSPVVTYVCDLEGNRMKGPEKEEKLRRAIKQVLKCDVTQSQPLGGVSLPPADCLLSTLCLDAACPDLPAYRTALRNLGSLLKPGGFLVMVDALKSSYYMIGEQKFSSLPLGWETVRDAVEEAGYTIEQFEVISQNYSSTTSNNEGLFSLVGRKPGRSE

[3] = Cmax in C57Bl6/N mouse at 1 mg/kg, iv; type: ADME, organism-based; set-up: dose 1 mg/kg, route intravenous; conditions: in vivo
Cytochrome P450 2D6 = Cytochrome P450 2D6 (Homo sapiens, UniProt P10635); experiment: Inhibition of CYP2D6 (unknown origin); type: ADME
Cytochrome P450 3A4 = Cytochrome P450 3A4 (Homo sapiens, UniProt P08684); experiment: Inhibition of CYP3A4 (unknown origin); type: ADME
[4] = Metabolic stability in rat liver microsomes assessed as parent compound remaining after 30 mins; type: ADME, microsome; conditions: read-out: Stability
[5] = Clearance in C57Bl6/N mouse at 10 mg/kg, po or 1 mg/kg, iv; type: ADME, organism-based; conditions: in vivo
[6] = Solubility of the compound; type: physicochemical
[7] = Metabolic stability in mouse liver microsomes assessed as parent compound remaining after 30 mins; type: ADME, microsome; conditions: read-out: Stability
[8] = Half life in C57Bl6/N mouse at 1 mg/kg, iv; type: ADME, organism-based; conditions: in vivo
[9] = Half life in C57Bl6/N mouse at 10 mg/kg, po; type: ADME, organism-based; conditions: in vivo
[10] = AUC in C57Bl6/N mouse at 10 mg/kg, po; type: ADME, organism-based; conditions: in vivo
[11] = Volume of distribution in C57Bl6/N mouse at 10 mg/kg, po or 1 mg/kg, iv; type: ADME, organism-based; conditions: in vivo
[12] = Cmax in C57Bl6/N mouse at 10 mg/kg, po; type: ADME, organism-based; set-up: dose 10 mg/kg, route oral; conditions: in vivo
Mus musculus = experiment: In vivo inhibition of NNMT in C57Bl6/N mouse assessed as reduction in plasma MNA level at 50 mg/kg, po measured after 2 hrs by LC-MS/MS analysis; type: functional
Cytochrome P450 2C9 = Cytochrome P450 2C9 (Homo sapiens, UniProt P11712); experiment: Inhibition of CYP2C9 (unknown origin); type: ADME
[13] = molecular target: T2, Nicotinamide N-methyltransferase; experiment: Inhibition of NNMT in mouse 3T3L1 cells assessed as reduction in MNA production after 24 hrs by LC-MS/MS analysis; type: cell-based
[14] = AUC in C57Bl6/N mouse at 1 mg/kg, iv; type: ADME, organism-based; conditions: in vivo
[15] = Metabolic stability in human liver microsomes assessed as parent compound remaining after 30 mins; type: ADME, microsome; conditions: read-out: Stability
[16] = Oral bioavailability in C57Bl6/N mouse at 10 mg/kg; type: ADME, organism-based; conditions: in vivo

Sequence of Cytochrome P450 2C19 (P33261 whole entry): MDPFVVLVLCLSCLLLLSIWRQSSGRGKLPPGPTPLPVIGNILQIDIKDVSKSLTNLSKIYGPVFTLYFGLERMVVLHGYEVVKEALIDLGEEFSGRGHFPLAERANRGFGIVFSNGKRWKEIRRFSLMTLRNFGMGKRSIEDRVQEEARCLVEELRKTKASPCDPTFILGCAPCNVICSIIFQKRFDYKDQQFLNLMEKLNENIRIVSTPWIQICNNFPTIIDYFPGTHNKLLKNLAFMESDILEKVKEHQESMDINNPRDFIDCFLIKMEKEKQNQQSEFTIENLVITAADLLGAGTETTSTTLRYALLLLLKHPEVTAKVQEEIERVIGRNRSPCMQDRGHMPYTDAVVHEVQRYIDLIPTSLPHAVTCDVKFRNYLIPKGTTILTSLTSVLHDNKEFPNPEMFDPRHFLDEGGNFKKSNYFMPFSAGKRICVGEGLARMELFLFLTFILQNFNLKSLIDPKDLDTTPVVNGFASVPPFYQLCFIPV
Sequence of Cytochrome P450 2C9 (P11712 whole entry): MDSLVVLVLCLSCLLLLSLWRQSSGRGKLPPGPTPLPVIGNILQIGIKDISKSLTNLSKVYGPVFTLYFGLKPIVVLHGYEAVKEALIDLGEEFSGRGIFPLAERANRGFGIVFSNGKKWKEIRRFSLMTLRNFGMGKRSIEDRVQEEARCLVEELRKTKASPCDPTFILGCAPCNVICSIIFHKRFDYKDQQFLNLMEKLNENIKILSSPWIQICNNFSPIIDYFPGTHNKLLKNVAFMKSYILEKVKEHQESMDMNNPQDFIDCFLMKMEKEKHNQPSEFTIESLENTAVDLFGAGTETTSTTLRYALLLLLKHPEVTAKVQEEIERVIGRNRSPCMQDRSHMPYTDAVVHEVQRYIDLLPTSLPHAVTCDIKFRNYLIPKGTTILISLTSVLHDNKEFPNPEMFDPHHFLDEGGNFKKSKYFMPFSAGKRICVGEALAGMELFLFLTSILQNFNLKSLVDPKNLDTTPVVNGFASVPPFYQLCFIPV
Sequence of Cytochrome P450 2D6 (P10635 whole entry): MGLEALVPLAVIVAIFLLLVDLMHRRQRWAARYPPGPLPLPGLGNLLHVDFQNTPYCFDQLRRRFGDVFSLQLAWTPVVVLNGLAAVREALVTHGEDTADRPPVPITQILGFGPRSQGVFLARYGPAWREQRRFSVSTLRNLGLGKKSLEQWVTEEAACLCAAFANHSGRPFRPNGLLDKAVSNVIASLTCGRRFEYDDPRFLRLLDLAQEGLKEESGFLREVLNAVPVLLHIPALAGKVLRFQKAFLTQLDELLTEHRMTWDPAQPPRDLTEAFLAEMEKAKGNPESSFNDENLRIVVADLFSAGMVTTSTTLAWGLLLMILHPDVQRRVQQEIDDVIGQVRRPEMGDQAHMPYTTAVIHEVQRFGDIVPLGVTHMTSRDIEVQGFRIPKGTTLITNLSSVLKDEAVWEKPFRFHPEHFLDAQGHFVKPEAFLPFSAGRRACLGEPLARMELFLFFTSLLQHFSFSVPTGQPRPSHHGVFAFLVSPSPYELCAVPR
Sequence of Cytochrome P450 3A4 (P08684 whole entry): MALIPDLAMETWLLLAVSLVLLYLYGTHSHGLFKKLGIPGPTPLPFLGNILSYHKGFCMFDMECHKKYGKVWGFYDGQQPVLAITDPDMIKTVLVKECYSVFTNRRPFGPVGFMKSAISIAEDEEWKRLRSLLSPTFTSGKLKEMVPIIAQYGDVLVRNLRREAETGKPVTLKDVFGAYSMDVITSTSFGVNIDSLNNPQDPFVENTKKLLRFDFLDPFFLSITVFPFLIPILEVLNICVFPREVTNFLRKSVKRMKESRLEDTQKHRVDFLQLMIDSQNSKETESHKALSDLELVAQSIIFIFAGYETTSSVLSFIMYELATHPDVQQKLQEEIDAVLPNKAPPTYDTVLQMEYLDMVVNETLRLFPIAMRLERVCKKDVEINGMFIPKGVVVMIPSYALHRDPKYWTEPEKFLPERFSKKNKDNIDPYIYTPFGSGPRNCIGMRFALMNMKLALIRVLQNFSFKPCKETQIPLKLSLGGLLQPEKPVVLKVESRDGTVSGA

SMILES: CCOc1nc(C)ccc1C(N)=O
pIC50 [1]: < 4.52

SMILES: COc1ccc(C(N)=O)cc1F
pIC50 [1]: < 4.52

SMILES: Cc1ccc(C(N)=O)cn1
pIC50 [1]: < 5.00

SMILES: NC(=O)c1ccc(OC(F)F)nc1
pIC50 [1]: < 4.52

SMILES: COc1cnc(C(N)=O)cn1
pIC50 [1]: < 4.52

SMILES: COc1ccc(NC(C)=O)cn1
pIC50 [1]: < 4.52

SMILES: COc1ccc(C(N)=O)cc1
pIC50 [1]: < 4.52

SMILES: CCc1ccc(C(N)=O)cn1
pIC50 [1]: < 4.52

SMILES: COc1ccc(-c2nnn[nH]2)cn1
pIC50 [1]: < 4.52

SMILES: CSc1ccc(C(N)=O)cn1
pIC50 [1]: < 4.52

pIC50 [1]: 5.60 to 5.63
SMILES: COc1ccc(C(N)=O)cn1

SMILES: CCNC(=O)c1ccc(OC)nc1
pIC50 [1]: < 4.52

SMILES: COc1ccc(C(=N)N)cn1
pIC50 [1]: < 4.52

pIC50 (Cytochrome P450 2C19): < 4.70 | pIC50 [2]: 5.35 | Cmax [3]: 587 ng/mL | pIC50 (Cytochrome P450 2D6): < 4.70 | pIC50 (Cytochrome P450 3A4): < 4.70 | remaining at 0.5 h [4]: 97% | clearance [5]: 27.9 mL/min/kg | solubility [6]: 200 µM (≈ 30.2 µg/mL) | remaining at 0.5 h [7]: 69% | half-life [8]: 0.8 h | half-life [9]: 1.2 h | AUC [10]: 1090 ng·h/mL | Vd [11]: 1.85 L/kg | Cmax [12]: 1430 ng/mL | pIC50 (Cytochrome P450 2C9): < 4.70 | pIC50 [13]: 5.68 | AUC [14]: 511 ng·h/mL | remaining at 0.5 h [15]: 85% | bioavailability [16]: 19%
SMILES: CNc1ccc(C(N)=O)cn1
inhibition in vivo at 50 mg/kg (Mus musculus): 80%

SMILES: CN(C)c1ccc(C(N)=O)cn1
pIC50 [1]: < 4.52

SMILES: Cn1cc(C(N)=O)ccc1=O
pIC50 [1]: < 4.52

SMILES: CCOc1cc(C)ncc1C(N)=O
pIC50 [1]: < 4.52

pIC50 [1]: 5.79 to 6.04
SMILES: [2H]C([2H])([2H])Oc1ccc(C(N)=O)cn1

SMILES: NC(=O)c1ccc(C(F)(F)F)nc1
pIC50 [1]: < 4.52
